Read-outs that look alike come from different tables or passages of the source.
Columns and labels:
A549 cells = assay: Cell rescue assay with nicotinamide mononucleotide (NMN); type: cell-based, human; conditions: A549 cells treated with 10 nM agent; 1, 10 or 100 μM NMN; 72 h; MTT
Protocol: A549 cells were treated with 10 nM (1), (5), (6), or (7). Error bars represent the mean±SD. Cell viability was measured using the MTT assay. Each measurement was repeated 4 times.
Cell rescue assays were conducted using Nicotinamide Mononucleotide (NMN) as described by Busso et al. (Busso, N.; Karababa, M.; Nobile, M.; Rolaz, A.; Van Gool, F.; Galli, M.; Leo, O.; So, A.; De Smedt, T. Pharmacological inhibition of nicotinamide phosphoribosyltransferase/visfatin enzymatic activityidentifies a new inflammatory pathway linked to NAD. PLoS One 2008, […], e2267.) Briefly, A549 and DLD1 cells were plated at a density of 10,000 cells per well in 96 well plates for overnight. Cells were then treated with 10 nM concentrations of agents (1), (5)-(7). Simultaneously, concentrations of 1, 10 or 100 μM NMN were added to the cultures. Cultures were then continued for 72 h. MTT reagent was added to the cells after 72 h for a period of 3 h and then MTT crystals were solubilized using solubilization buffer. Readings were taken at 570 nm wavelength. Control cells were considered as 100% survival to plot the inhibition and rescue graph. The experiments were repeated four times.

[1] = tested on: A549 human lung cancer cell line; assay: MTT assay, A549; type: cell-based; conditions: A549 (Lung) human tumor cell line
Protocol: (§1) A549, DLD1, T47D and PC3 were purchased from ATCC (Manassas, Va.). MTT assay kit was purchased from Promega (Madison, Wis.). FK866 and NMN were purchased from Enzo Life Sciences (Farmingdale, N.Y.) and Sigma (St Louis, Mo.) respectively.
(§2) Additional MTT assays are show in FIGS. 11(A)-(D) and FIG. 12 for compounds (33)-(37).
(§3) The assay was performed according to the manufacturers protocol (CycLex NAMPT Colorimetric Assay Kit, MBL International Corp., Woburn, Mass.). The NAMPT assay was performed according manufacturers protocol. Briefly we used the “1-Step Assay Method” for which following reagents were mixed to make assay buffer and kept at ice before starting the assay: 10 μL each of 10× Nampt assay buffer, nicotinamide, PRPP, ATP and EtOH; 2 μL each of recombinant NMNAT1, WST-1, ADH, diaphorase and D2O. The Nampt inhibition assay was performed by mixing 2 μl of various concentrations (to make 1 pM-100 nM) of FK866 or (6) (or 2 μL DMSO as vehicle control) with the following: 2 μL recombinant Nampt and 36 μL D2O. The reaction was initiated by adding 60 μL of 1-Step Assay Buffer to each well and mixed thoroughly followed by incubation at 30° C. for 20 mins. After this period, the absorbance at 450 nm was measured and compared with the positive control. […] TABLE 4 lists measured Half-Maximal Inhibitory Concentrations (IC50) against Human Tumor Cell Lines A549 (Lung), DLD1 (Colon), and T47D (Breast).

DLD1 = assay: Scratch test (wound healing) assay; type: cell-based, human; conditions: for relative potencies of the compounds: wound healing experiments, consistent with cell viability assays; for inhibition of cancer cell migration: 1 nM test agent, 24 h, FIG. 9
Protocol: The antimigratory effects of compounds (5)-(7) were compared with FK866 by employing a wound healing or scratch test analysis using various cell cancer lines. The assay measures the ability of a drug to inhibit cancer cell migration across a gap “scratched” in a confluent layer of cells. The cells were imaged immediately after the formation of the wound and then incubated with 1 nM concentrations of each test agent. After 24 h, the wounds were imaged again and compared with a control group of untreated cells. […] The results of the wound healing experiments are consistent with those from the cell viability assays with regard to the relative potencies of the compounds (6)>(7)>(5)>FK866.

[2] = tested on: T47D (Breast) human tumor cell line; assay: MTT assay, T47D; type: cell-based
Protocol: as §1, §2, §3

[3] = tested on: DLD1 (Colon) human tumor cell line; assay: MTT assay, DLD1; type: cell-based
Protocol: as §1, §2, §3

Compound | cell rescue by NMN (A549 cells) | IC50 [1] | relative potencies of the compounds (DLD1) | IC50 [2] | IC50 [3] | inhibition of cancer cell migration (DLD1) | IC50 ([3]; DLD-1)
1-(4′-(Trans-3″-(3′″-pyridyl)acrylamido)butyl)-1,12-dicarba-closo-dodecaborane [Compound 7] | nearly complete rescue | 0.99 ± 0.03 nM | (6)>(7)>(5)>FK866 | 0.58 ± 0.03 nM | 2.2 ± 0.12 nM |  | 
1-(4′-(Trans-3″-(3′″pyridyl)acrylamido)butyl)-1,7-dicarba-closo-dodecaborane [Compound 6] | nearly complete rescue | 0.41 ± 0.01 nM | (6)>(7)>(5)>FK866 | 0.32 ± 0.02 nM | 0.31 ± 0.01 nM | highest potency | 
O=C(/C=C/c1cccnc1)NCCCCC1CCN(C(=O)c2ccccc2)CC1 [Compound 1, reference compound] | nearly complete rescue | 1.62 ± 0.04 nM | (6)>(7)>(5)>FK866 | 3.2 ± 0.16 nM |  | partially inhibited cell migration | 3.14 ± 0.11 nM
O=C(/C=C/c1cccnc1)NCCC#CC12CC3CC(CC(C3)C1)C2 [Compound 4] |  | 88.9 ± 1.1 nM |  | 186 ± 4.1 nM |  |  | 20.3 ± 0.44 nM

Reference: patent US9382267B2, “Small molecule inhibitors of nicotinamide phosphoribosyltransferase (NAMPT)” (The Curators of the University of Missouri, priority 2011, dated 2016)
